Test results from patent US8980934B2, “Kinase inhibitors and method of treating cancer with same” (University Health Network, priority 2012, dated 2015).

Experiments:
Test in all cases: Cancer cell growth inhibition, Sulforhodamine B assay
Type in all cases: cell-based
[1] = test system: MDA-MB-231 breast cancer cells; settings: Homo sapiens, 120 h; MDA-MB-231, 5 days culture, SRB; read-out: Cancer Cell Line GI50 Range MDA-MB-231
Experimental: (§1) Breast cancer cells (MDA-MB-231), colon cancer cells (HCT116) and ovarian cancer cells (PA-1) were seeded (1000 to 4000 in 80 μl per well depending on the cell growth rate) into 96 well plates 24 hours before compound overlay. Compounds were prepared as 10 mM stock solutions in 100% DMSO which were diluted with DMEM (Dulbecco's Modified Eagle's Medium) cell growth Medium (Invitrogen, Burlington, ON, Canada) containing 10% FBS (Fetal Bovine Serum) to concentrations ranging from 50 nM to 250 μM. Aliquots (20 μl) from each concentration were overlaid to 80 μl of the pre-seeded cells in the 96 well plates to make final concentrations of 10 nM to 50 μM. The cells were cultured for 5 days before the Sulforhodamine B assay (SRB) was performed to determine the compound's cell growth inhibition activity.
(§2) Sulforhodamine B (purchased from Sigma, Oakville, ON, Canada) is a water-soluble dye that binds to the basic amino acids of the cellular proteins. Thus, colorimetric measurement of the bound dye provides an estimate of the total protein mass that is related to the cell number. the cells are fixed in situ by gently aspirating off the culture media and adding 50 μl ice cold 10% Trichloroacetic Acid (TCA) per well and incubate at 4° C. for 30-60 min. The plates are washed with H2O five times and allowed to air dry for 5 min. Addition of 50 μl 0.4% (w/v) SRB solution in 1% (v/v) acetic acid to each well and incubatation for 30 min at RT completes the staining reaction. Following staining, plates are washed four times with 1% acetic acid to remove unbound dye and then allowed to air dry for 5 min. The stain is solubilized with 100 μl of 10 mM Tris pH 10.5 per well. Absorbance is read at 570 nm.
(§3) The percentage (%) of relative growth inhibition was calculated by comparing to DMSO treated only cells (100%). GI50's were determined for compounds with cytotoxic activity. The GI50 was calculated using GraphPad PRISM software (GraphPad Software, Inc., San Diego, Calif., USA). GI50 (growth inhibition) is the compound concentration that causes 50% inhibition of cell growth.
(§4) In Table 1 below, GI50 value ranges for several compound examples against breast cancer cell lines (MDA-MB-231), colon cancer cell lines (HCT116) and ovarian cancer cell lines (PA-1) are given. […] The GI50 ranges are indicated as “A,” “B,” and “C,” for values less than or equal to 0.1 μM; those greater than 0.1 μM and less than or equal to 0.5 μM; and those greater than 0.5 μM, respectively.

[2] = test system: PA-1 ovarian cancer cells; settings: 120 h; PA-1, 5 days culture, SRB; read-out: Cancer Cell Line GI50 Range PA-1
Experimental: as §1, §2, §3, §4

[3] = test system: HCT116 colon cancer cells; settings: Homo sapiens, HCT-116, 120 h; HCT116, 5 days culture, SRB; read-out: Cancer Cell Line GI50 Range HCT116
Experimental: as §1, §2, §3, §4

Compound | GI50 [1] | GI50 [2] | GI50 [3]
O=C(N[C@@H](c1ncccn1)C1CCCC1)c1ccc2[nH]nc(-c3ccc(N4CC5(COC5)C4)cc3)c2c1 [Example A26, (R)-3-(4-(2-oxa-6-azaspiro[3.3]heptan-6-yl)phenyl)-N-(cyclopentyl(pyrimidin-2-yl)methyl)-1H-indazole-5-carboxamide] | ≤ 100 nM | ≤ 100 nM | ≤ 100 nM
O=C(N[C@H](c1ccccc1)C1CC1)c1ccc2[nH]nc(-c3ccc(N4CC5(CCOCC5)C4)cc3)c2c1 [Example A17, (S)-3-(4-(7-Oxa-2-azaspiro[3.5]nonan-2-yl)phenyl)-N-(cyclopropyl(phenyl)methyl)-1H-indazole-5-carboxamide] | 100 to 500 nM | 100 to 500 nM | 100 to 500 nM
CC(C)C[C@H](NC(=O)c1ccc2[nH]nc(-c3ccc(N4CC5(COC5)C4)cc3)c2c1)c1ccccn1 [Example A27, (S)-3-(4-(2-oxa-6-azaspiro[3.3]heptan-6-yl)phenyl)-N-(3-methyl-1-(pyridin-2-yl)butyl)-1H-indazole-5-carboxamide] | ≤ 100 nM | ≤ 100 nM | ≤ 100 nM
CC(C)[C@@H](NC(=O)c1ccc2[nH]nc(-c3ccc(N4CC5(COC5)C4)cc3)c2c1)c1ccccc1Cl [Example A13, 3-(4-(2-Oxa-6-azaspiro[3.3]heptan-6-yl)phenyl)-N-((R)-1-(2-chlorophenyl)-2-methylpropyl)-1H-indazole-5-carboxamide] | 100 to 500 nM | ≤ 100 nM | ≤ 100 nM
O=C(NC(c1nccs1)C1CC1)c1ccc2[nH]nc(-c3ccc(N4CC5(COC5)C4)cc3)c2c1 (stereo not drawn) [Example A14, 3-(4-(2-Oxa-6-azaspiro[3.3]heptan-6-yl)phenyl)-N-(cyclopropyl(thiazol-2-yl)methyl)-1H-indazole-5-carboxamide] | ≤ 100 nM | ≤ 100 nM | ≤ 100 nM
O=C(NC(c1ccccn1)C1CC1)c1ccc2[nH]nc(-c3ccc(N4CCC5(COC5)C4)cc3)c2c1 (stereo not drawn) [Example A16, 3-(4-(2-Oxa-6-azaspiro[3.4]octan-6-yl)phenyl)-N-(cyclopropyl(pyridin-2-yl)methyl)-1H-indazole-5-carboxamide] | 100 to 500 nM | 100 to 500 nM | 100 to 500 nM
O=C(N[C@@H](c1ccccn1)C1CC1)c1ccc2[nH]nc(-c3ccc(N4CC5(CCO5)C4)cc3)c2c1 [Example A22, (R)-3-(4-(1-Oxa-6-azaspiro[3.3]heptan-6-yl)phenyl)-N-(cyclopropyl(pyridin-2-yl)methyl)-1H-indazole-5-carboxamide] | ≤ 100 nM | ≤ 100 nM | ≤ 100 nM
O=C(N[C@H](c1ncccn1)C1CCCC1)c1ccc2[nH]nc(-c3ccc(N4CC5(COC5)C4)cc3)c2c1 [Example A25, (S)-3-(4-(2-oxa-6-azaspiro[3.3]heptan-6-yl)phenyl)-N-(cyclopentyl(pyrimidin-2-yl)methyl)-1H-indazole-5-carboxamide] | ≤ 100 nM | ≤ 100 nM | ≤ 100 nM
O=C(N[C@@H](c1ccsc1)C1CCCC1)c1ccc2[nH]nc(-c3ccc(N4CC5(COC5)C4)cc3)c2c1 [Example A9, 3-(4-(2-Oxa-6-azaspiro[3.3]heptan-6-yl)phenyl)-N-((R)-cyclopentyl(thiophen-3-yl)methyl)-1H-indazole-5-carboxamide] | > 500 nM | 100 to 500 nM | 100 to 500 nM
O=C(N[C@H](c1ccccn1)C1CC1)c1ccc2[nH]nc(-c3ccc(N4CC5(CCO5)C4)cc3)c2c1 [Example A21, (S)-3-(4-(1-Oxa-6-azaspiro[3.3]heptan-6-yl)phenyl)-N-(cyclopropyl(pyridin-2-yl)methyl)-1H-indazole-5-carboxamide] | ≤ 100 nM | ≤ 100 nM | ≤ 100 nM
CC(C)[C@H](NC(=O)c1ccc2[nH]nc(-c3ccc(N4CC5(CN(C)C5)C4)cc3)c2c1)c1ccccc1Cl [Example A28, (S)-N-(1-(2-Chlorophenyl)-2-methylpropyl)-3-(4-(6-methyl-2,6-diazaspiro[3.3]heptan-2-yl)phenyl)-1H-indazole-5-carboxamide] | ≤ 100 nM | ≤ 100 nM | ≤ 100 nM

Now from value to molecule:

GI50 [1] | GI50 [2] | GI50 [3] | Compound
≤ 100 nM | ≤ 100 nM | ≤ 100 nM | O=C(N[C@@H](c1ncccn1)C1CCCC1)c1ccc2[nH]nc(-c3ccc(N4CCC45COC5)cc3)c2c1 [Example A37, (R)-3-(4-(6-oxa-1-azaspiro[3.3]heptan-1-yl)phenyl)-N-(cyclopentyl(pyrimidin-2-yl)methyl)-1H-indazole-5-carboxamide]
≤ 100 nM | ≤ 100 nM | ≤ 100 nM | O=C(N[C@H](c1ccccn1)C1CCCC1)c1ccc2[nH]nc(-c3ccc(N4CC5(CC(O)C5)C4)cc3)c2c1 [Example A33, (S)-N-(Cyclopentyl(pyridin-2-yl)methyl)-3-(4-(6-hydroxy-2-azaspiro[3.3]heptan-2-yl)phenyl)-1H-indazole-5-carboxamide]
≤ 100 nM | ≤ 100 nM | ≤ 100 nM | CC(C)[C@H](NC(=O)c1ccc2[nH]nc(-c3ccc(N4CC5(C4)CN(C4COC4)C5)cc3)c2c1)c1ccccc1Cl [Example A30, (S)-N-(1-(2-Chlorophenyl)-2-methylpropyl)-3-(4-(6-(oxetan-3-yl)-2,6-diazaspiro[3.3]heptan-2-yl)phenyl)-1H-indazole-5-carboxamide]
≤ 100 nM | ≤ 100 nM | ≤ 100 nM | CN1CC2(C1)CN(c1ccc(-c3n[nH]c4ccc(C(=O)N[C@H](c5ccccc5)C5CC5)cc34)cc1)C2 [Example A29, (S)-N-(Cyclopropyl(phenyl)methyl)-3-(4-(6-methyl-2,6-diazaspiro[3.3]heptan-2-yl)phenyl)-1H-indazole-5-carboxamide]
100 to 500 nM | 100 to 500 nM | 100 to 500 nM | CC(C)C[C@H](NC(=O)c1ccc2[nH]nc(-c3ccc(N4CCC45COC5)cc3)c2c1)c1ccccn1 [Example A35, (S)-3-(4-(6-Oxa-1-azaspiro[3.3]heptan-1-yl)phenyl)-N-(3-methyl-1-(pyridin-2-yl)butyl)-1H-indazole-5-carboxamide]
100 to 500 nM | 100 to 500 nM | 100 to 500 nM | O=C(N[C@H](c1ccccn1)C1CCCC1)c1ccc2[nH]nc(-c3ccc(N4CCC45COC5)cc3)c2c1 [Example A34, (S)-3-(4-(6-Oxa-1-azaspiro[3.3]heptan-1-yl)phenyl)-N-(cyclopentyl(pyridin-2-yl)methyl)-1H-indazole-5-carboxamide]
≤ 100 nM | ≤ 100 nM | ≤ 100 nM | O=C(N[C@H](c1ccccn1)C1CCCC1)c1ccc2[nH]nc(-c3ccc(N4CC5(C4)CN(C4COC4)C5)cc3)c2c1 [Example A31, (S)-N-(Cyclopentyl(pyridin-2-yl)methyl)-3-(4-(6-(oxetan-3-yl)-2,6-diazaspiro[3.3]heptan-2-yl)phenyl)-1H-indazole-5-carboxamide]
